Laboratory results reported in patent US10005733B2, “N-(4-hydroxy-4-methyl-cyclohexyl)-4-phenyl-benzenesulfonamide and N-(4-hydroxy-4-methyl-cyclohexyl)-4-(2-pyridyl)-benzenesulfonamide compounds and their therapeutic use” (PIMCO 2664 LIMITED, priority 2014, dated 2018).

How the values were obtained:
[1] = system: J774 macrophages; assay: Resazurin Macrophage J774 Viability Assay; format: cell-based; conditions: Mus musculus, J774, 72 h; footnote (1): 10 point range 30 μM to 1.5 nM, n = 3 per concentration, Grafit; 72 hour incubation
Procedure: Potency was assessed using a viability assay based on the survival of the J774 macrophage cell line. Macrophages are closely related to osteoclasts and have been used previously as a model system for osteoclast survival (see, e.g., Luckman et al., 1998, “Heterocycle-containing bisphosphonates cause apoptosis and inhibit bone resorption by preventing protein prenylation: evidence from structure-activity relationships in J774 macrophages,” J. Bone Miner. Res., Vol. 13, pp. 1668-1678). The model is indicative both of effects on bone protection in diseases such as osteoporosis, osteoarthritis and rheumatoid arthritis, and of effects on inflammation since, like osteoclasts, J774 macrophages are dependent for survival on continued NFκB activation.
In vitro potency of test compounds was determined by incubation with J774 macrophages and subsequent determination of cell viability using resazurin.
Resazurin is a redox dye commonly used as an indicator of viability in cultured cells (see, e.g., Anoopkumar-Dukie, 2005, “Resazurin assay of radiation response in cultured cells”, British Journal of Radiology, Vol. 78, pp. 945-947). It is non-toxic to cells and stable in culture medium, allowing continuous measurement of cell proliferation in vitro as either a kinetic or endpoint assay. The assay is based on the ability of viable, metabolically-active cells to reduce resazurin (which is blue and non-fluorescent) to resorufin and dihydroresorufin (which are red and fluorescent) using electrons from reducing species, such as nicotinamide […] and flavin adenine dinucleotide (FADH). This transformation, from oxidised form to reduced form, can be measured either colorimetrically or fluorometrically. Insults that impair cell viability and proliferation also affects the capacity of cells to reduce resazurin, and the rate of dye reduction is directly proportional to the number of viable cells present.
For fluorescence measurements, 530-560 nm excitation and 590 nm emission wavelengths are typically used. For colorimetric measurements, absorbance at 570 nm (reduced form) and 600 nm (oxidised form) is typically measured. A simple calculation is performed to determine the relative quantities of the two species: a high ratio of resorufin (the reduced form) to resazurin (the oxidised form) is an indicator that cells are proliferating and viable. A low ratio indicates cells that are quiescent or non-viable.
J774 cells were plated at 10^4 cells per well in 100 μL αMEM (α Modified Eagle Medium) in 96-well plates and allowed to adhere overnight. The following day, test compounds were prepared as 100 mM solutions in DMSO. These stock solutions were diluted in DMSO and then diluted 1000× in culture medium (αMEM) before being added directly to the wells so as to give the desired final compound concentration. After a 72 hour incubation at 37° C./5% CO2, resazurin (Alamar Blue, Biosource International) was added to each well (1:10 v/v, 10 μL). The plate was then incubated at 37° C. for 3 hours and fluorescence was measured at 590 nm, with a 25 nm bandwidth.
The average results for each test compound were expressed as a percent (%) of the average control value reflecting cell viability. The average values across the concentrations tested were then plotted and an IC50 was calculated by fitting the data to a 4-parameter IC50 equation using either Graph Pad Prism software for Windows (Graph Pad Software, San Diego Calif. USA) or Grafit version 5 (Erithacus Software). Each experiment was repeated twice and the data are presented as the mean IC50 from both experiments.

[2] = Rodent Pharmacokinetics Studies; format: in vivo, rat; conditions: male Han Wistar rats; for i.v. AUC: 1 mg/kg intravenous, 5% DMSO/10% solutol in saline; for bioavailability: rat, plasma, 5 mg/kg, oral in 0.5% CMC/0.1% Tween-80, i.v. in 5% DMSO/10% solutol in saline, read-out: Bioavail, F (%)
Procedure: Absorption and metabolic stability were studied using an in vivo pharmacokinetics assay.
[…] […] For compound HMC-C-01-A the oral administration was formulated in 2% dimethylacetamide/20% hydroxypropyl-β-cyclodextrin in water. Animals were given free access to food throughout the study except for fasting overnight and until 2 hours post dose on the day of dosing.
Blood samples were taken from the retro-orbital plexus at the following time points and placed in microtubes containing 20% K2EDTA solution: […]
Blood samples were centrifuged to obtain plasma, which was transferred to a separate container and frozen at −20° C.
For analysis, samples were thawed at room temperature and prepared by protein precipitation with acetonitrile spiked with internal standard (500 ng/mL glipizide) in the ratio 1:4 with plasma. The samples were then vortexed for 5 minutes and centrifuged for 10 minutes at 20,600×g at 4° C. 100 μL of the supernatant was collected for analysis.
The pharmacokinetic parameters for the test compounds were calculated by Phoenix WinNonlin version 6.3 (Pharsight Corp, CA) using standard non-compartmental methods. Peak plasma concentrations (Cmax) and time of the peak plasma concentration (Tmax) were the observed values. The area under the plasma concentration-time curve (AUC) was determined by use of the linear trapezoidal rule up to the last measurable concentration (AUClast) and thereafter by extrapolation of the terminal elimination phase to infinity (AUCinf). The terminal elimination rate constant (kel) was determined by regression analysis of the linear terminal portion of the log plasma concentration-time curve. The elimination phase half-life (t1/2) was calculated as 0.693/kel.

[3] = system: human primary osteoclasts; assay: Human Primary Osteoclastogenesis (TRAP-positive multinucleated cells from CD14+ monocytes); format: cell-based; conditions: 1 μM; compound added on Day 4 of monocyte differentiation
Procedure: In vitro potency of test compounds was determined by incubating them with human primary monocytes and assessing effects on the formation of mature osteoclasts.
The activity of the compounds in reducing the formation of human primary osteoclasts (osteoclastogenesis) was tested using monocytes derived from human whole blood. Monocytes, which are positive for the cell surface marker CD14, are part of the innate immune system found in the circulation. Peripheral blood monocytes differentiate to form several cell types, including osteoclasts. Human primary osteoclasts were […] macrophage colony-stimulating factor (M-CSF) and RANKL+10% foetal calf serum for approximately 6 days, with the exact duration depending on the individual donor of the cells.
When monocytes are cultured under the conditions described above, they form large, multinucleated cells (osteoclasts), which stain positively for tartrate-resistant acid phosphatase (TRAP). TRAP staining was performed between Days 5-6 of culture depending on the individual donor. Osteoclasts are identified as cells which stain positive for TRAP and contain more than 3 nuclei. Compounds which reduce the number of TRAP-positive cells reduce the formation of osteoclasts. The bisphosphonate compound, alendronate, which is used in the treatment of osteoporosis, is used as a positive control for reducing osteoclastogenesis in this assay.
Effects on osteoclast formation were assessed by staining for TRAP and counting cells containing more than three nuclei in each well under a microscope. This allows the absolute determination of cell number in each treated well.
PBMCs (peripheral blood mononuclear cells) were collected from healthy donors and isolated by centrifugation on a layer of Ficoll Paque (GE Healthcare, UK). Monocytes were then sorted from the PBMCs using an autoMACS Pro Separator (MiltenyiBiotec), which sorts cells depending on the markers present on their cell surface. The resulting CD14+ monocytes were resuspended in αMEM supplemented with 10% FCS, 25 ng/mL M-CSF and 100 ng/ml RANKL and added to a 48-well plate, which was then incubated for up to 6 days at 37° C./5% CO2. […] The medium was replenished every 2 days.
At the end of the culture period, the medium was removed from the cells and the cells were fixed at room temperature and then washed with phosphate-buffered saline. TRAP staining solution was then added and the cells incubated at 37° C. until a red colour had developed, after which the reaction was stopped by rinsing with water. The stained cells were air-dried and then photographed using a conventional microscope and the TRAP-positive multinucleated osteoclasts counted by two independent observers.
The average results (n=6) for each concentration of test compound were averaged between the two observers and then expressed as a fold change versus the average control value. The data were then plotted graphically using software from Grafit (Erithacus Software).

[4] = 5 mg/kg orally, 0.5% CMC/0.1% Tween-80

SMILES | IC50 [1] | i.v. AUC [2] | p.o. AUC [2, 4] | bioavailability [2] | % reduction at 1 μM [3] | p.o. AUC (ng/mL/min) [2, 4]
O=S(=O)(N[C@H]1CC[C@H](O)CC1)c1ccc(-c2ncc(Cl)cc2Cl)cc1 [ABD836, reference compound] | 1450 nM | 2142 ng/mL/min | 5927 ng/mL/min | 55% |  | 
NCCCC(O)(P(=O)(O)O)P(=O)(O)O [Alendronate, alendronate] |  |  |  |  | 12% | 
Cc1cc(S(=O)(=O)NC2CCC(C)(O)CC2)ccc1-c1ccc(F)cc1F (single isomer, unassigned) [REF001, reference compound] | 50 nM | 963 ng/mL/min |  | 50% |  | 4766 ^(4) ng/mL/min
